# Where a name gives a salt, the structure may show the parent alone. Read-outs that look alike come from different tables or passages of the source.
# What was measured:
# [1] = biological target: T1, SARS-CoV-2 PLpro (nsp3 1564–1878) (Severe acute respiratory syndrome coronavirus 2, UniProt P0DTD1); experiment: biochemical; parameters: FRET-quenched peptide (Pro3) cleavage by PLpro, 10 min pre-incubation, slope over 20 min, normalised to no-compound control; details: high concentration screen, read-out: % of control remaining
# [2] = biological target: T1, SARS-CoV-2 PLpro (nsp3 1564–1878); experiment: biochemical; parameters: FRET-quenched peptide (Pro3) cleavage by PLpro, 10 min pre-incubation, slope over 20 min, normalised to no-compound control; details: low concentration screen, read-out: % of control remaining
structure (smiles),measurement,setting,value
C[C@H](Nc1ncnc2nc[nH]c12)c1cc2cccc(Cl)c2c(=O)n1-c1ccccc1 [IPI-145 (INK1197)],remaining activity at 3.75 µM,[1]; Well no.=5170,99.5%
same,remaining activity at 1.25 µM,[2]; Well no.=5170,102%
CC(C)(CCCCCC(O)CCCCCC(C)(C)C(=O)O)C(=O)O [ETC-1002],remaining activity at 3.75 µM,[1]; Well no.=8628,98.8%
same,remaining activity at 1.25 µM,[2]; Well no.=8628,101%
O=C(c1cn(Cc2cncn2Cc2ccc(Br)cc2)cc1-c1cccc2ccccc12)N1CCOCC1 [LB42708],remaining activity at 3.75 µM,[1]; Well no.=8766,91.4%
same,remaining activity at 1.25 µM,[2]; Well no.=8766,99.3%
CO[C@]1(CC[C@@H](C)CO[C@@H]2O[C@H](CO)[C@@H](O)[C@H](O)[C@H]2O)O[C@H]2C[C@H]3[C@@H]4CC=C5C[C@@H](O[C@@H]6O[C@H](CO)[C@@H](O[C@@H]7O[C@@H](C)[C@H](O)[C@@H](O)[C@H]7O)[C@H](O)[C@H]6O[C@@H]6O[C@@H](C)[C@H](O)[C@@H](O)[C@H]6O)CC[C@]5(C)[C@H]4CC[C@]3(C)[C@H]2[C@@H]1C [Methyl protodioscin],remaining activity at 3.75 µM,[1]; Well no.=6208,93.7%
same,remaining activity at 1.25 µM,[2]; Well no.=6208,101%
O=C(O)c1ccccc1Nc1ccccc1 [N-Phenylanthranilic acid],remaining activity at 3.75 µM,[1]; Well no.=51,95.6%
same,remaining activity at 1.25 µM,[2]; Well no.=51,101%
CCC(=O)O[C@]1(C(=O)CCl)[C@@H](C)C[C@H]2[C@@H]3CCC4=CC(=O)C=C[C@]4(C)[C@@]3(F)[C@@H](O)C[C@@]21C [Clobetasol propionate],remaining activity at 3.75 µM,[1]; Well no.=1924,99.3%
same,remaining activity at 3.75 µM,[1]; Well no.=8301,89.7%
same,remaining activity at 1.25 µM,[2]; Well no.=1924,98.4%
same,remaining activity at 1.25 µM,[2]; Well no.=8301,95.3%
"COc1ccc(CC(=O)O)cc1OC [3,4-Dimethoxyphenylacetic acid]",remaining activity at 3.75 µM,[1]; Well no.=6639,104%
same,remaining activity at 1.25 µM,[2]; Well no.=6639,103%
CCOC(=O)[C@H](CCc1ccccc1)N[C@@H](C)C(=O)N1CCC[C@H]1C(=O)O [(2Z)-2-butenedioic acid compound with (2S)-1-((2S)-2-{[(1S)-1-(ethoxycarbonyl)-3-phenylpropyl]amino}propanoyl)-2-pyrrolidinecarboxylic acid (1:1)],remaining activity at 3.75 µM,[1]; Well no.=5659,101%
same,remaining activity at 1.25 µM,[2]; Well no.=5659,102%
Cc1ccc(NC(=O)Nc2cc([C@H]3C[C@H]3C(=O)O)ccc2N(CC(C)C)CC(C)C)cc1 [IDO-IN-4],remaining activity at 3.75 µM,[1]; Well no.=8647,106%
same,remaining activity at 1.25 µM,[2]; Well no.=8647,104%
CNCCC(Oc1ccc(C(F)(F)F)cc1)c1ccccc1 (centres unmarked) [Fluoxetine],remaining activity at 3.75 µM,[1]; Well no.=2102,98.8%
same,remaining activity at 1.25 µM,[2]; Well no.=2102,96.6%
"C/C(O)=C(\C#N)C(=O)Nc1cc(Br)ccc1Br [LFM-A13 - 2-Cyano-N-(2,5-dibromophenyl)-3-hydroxy-2-butenamide]",remaining activity at 3.75 µM,[1]; Well no.=2384,102%
same,remaining activity at 1.25 µM,[2]; Well no.=2384,101%
"CCCCCC#CCC#CCC#CCC#CCCCC(=O)O [5,8,11,14-Eicosatetraynoic acid]",remaining activity at 3.75 µM,[1]; Well no.=4472,97.4%
same,remaining activity at 1.25 µM,[2]; Well no.=4472,98.7%
Nc1ccc(-c2ccc3ncc4ccc(=O)n(-c5cccc(C(F)(F)F)c5)c4c3c2)cn1 [Torin 2],remaining activity at 3.75 µM,[1]; Well no.=4787,97.9%
same,remaining activity at 1.25 µM,[2]; Well no.=4787,95.6%
Cc1cc2nc(NCCCO)n(CC(=O)c3cc(C(C)(C)C)c(O)c(C(C)(C)C)c3)c2cc1C [CID2858522],remaining activity at 3.75 µM,[1]; Well no.=5503,109%
same,remaining activity at 1.25 µM,[2]; Well no.=5503,104%
CC(C)NC[C@@H](O)COc1ccc(CC(N)=O)cc1 [R(+)-Atenolol],remaining activity at 3.75 µM,[1]; Well no.=302,94.8%
same,remaining activity at 1.25 µM,[2]; Well no.=302,94.7%
"C[C@@H](c1nc(-c2ccc(C#N)cc2)cs1)[C@](O)(Cn1cncn1)c1ccc(F)cc1F [4-{2-[(1R,2R)-2-(2,4-difluorophenyl)-2-hydroxy-1-methyl-3-(1H-1,2,4-triazol-1-yl)propyl]-1,3-thiazol-4-yl}benzonitrile]",remaining activity at 3.75 µM,[1]; Well no.=5644,92.4%
same,remaining activity at 1.25 µM,[2]; Well no.=5644,90.9%
C/C(=C\c1ccc(C(=O)O)cc1)c1ccc2c(c1)C(C)(C)CCC2(C)C [TTNPB],remaining activity at 3.75 µM,[1]; Well no.=1429,99.8%
same,remaining activity at 3.75 µM,[1]; Well no.=4436,100%
same,remaining activity at 1.25 µM,[2]; Well no.=1429,97.8%
same,remaining activity at 1.25 µM,[2]; Well no.=4436,93%
CCCCCCCC(=O)O [Octanoic acid],remaining activity at 3.75 µM,[1]; Well no.=6591,110%
same,remaining activity at 1.25 µM,[2]; Well no.=6591,104%
CC(C)c1ccc(NC(=O)Cn2cnc3c2c(=O)n(C)c(=O)n3C)cc1 [HC-030031],remaining activity at 3.75 µM,[1]; Well no.=5225,89.7%
same,remaining activity at 1.25 µM,[2]; Well no.=5225,94%
"CCCN1CCc2cc(O)cc3c2[C@H]1Cc1ccc(O)c(O)c1-3 [R(-)-2,10,11-Trihydroxy-N-propylnoraporphine hydrobromide]",remaining activity at 3.75 µM,[1]; Well no.=636,103%
same,remaining activity at 1.25 µM,[2]; Well no.=636,103%
NC[C@@H]1O[C@H](C23CC4CC(CC(C4)C2)C3)Cc2c1ccc(O)c2O [A-77636 hydrochloride],remaining activity at 3.75 µM,[1]; Well no.=212,99.3%
same,remaining activity at 1.25 µM,[2]; Well no.=212,102%
COC(=O)Nc1nc2cc(C(=O)c3ccc(F)cc3)ccc2[nH]1 [Flubendazole],remaining activity at 3.75 µM,[1]; Well no.=2128,103%
same,remaining activity at 1.25 µM,[2]; Well no.=2128,101%
CN[C@@H](C)C(=O)N[C@H]1CCCC[C@H]2CC[C@@H](C(=O)N[C@@H](c3ccccc3)c3cn(CCCCc4ccc(CCCCn5cc([C@@H](NC(=O)[C@@H]6CC[C@@H]7CCCC[C@H](NC(=O)[C@H](C)NC)C(=O)N76)c6ccccc6)nn5)cc4)nn3)N2C1=O [SM-164 Hydrochloride],remaining activity at 3.75 µM,[1]; Well no.=7030,102%
same,remaining activity at 3.75 µM,[1]; Well no.=8556,99.5%
same,remaining activity at 1.25 µM,[2]; Well no.=7030,105%
same,remaining activity at 1.25 µM,[2]; Well no.=8556,104%
NS(=O)(=O)c1cc2c(cc1Cl)NC(C(Cl)Cl)NS2(=O)=O (centres unmarked) [Trichlormethiazide],remaining activity at 3.75 µM,[1]; Well no.=8656,99.7%
same,remaining activity at 1.25 µM,[2]; Well no.=8656,102%
NC(Cc1cccc(-c2ccccc2CP(=O)(O)O)c1)C(=O)O (stereo not drawn) [Phenylbenzene-omega-phosphono-alpha-amino acid],remaining activity at 3.75 µM,[1]; Well no.=1361,100%
same,remaining activity at 1.25 µM,[2]; Well no.=1361,100%
CCC(=O)O[C@@H](O[P@](=O)(CCCCc1ccccc1)CC(=O)N1C[C@H](C2CCCCC2)C[C@H]1C(=O)O)C(C)C [Fosinopril Sodium],remaining activity at 3.75 µM,[1]; Well no.=8492,102%
same,remaining activity at 1.25 µM,[2]; Well no.=8492,101%
CC(=O)O/N=C1/C(c2c(O)[nH]c3cc(Br)ccc23)=Nc2ccccc21 [BIO-Acetoxime],remaining activity at 3.75 µM,[1]; Well no.=5822,93.6%
same,remaining activity at 1.25 µM,[2]; Well no.=5822,96%
N[C@]1(C(=O)O)CC[C@H](C(=O)O)C1,remaining activity at 3.75 µM,[1]; Well no.=64,101%
same,remaining activity at 1.25 µM,[2]; Well no.=64,102%
C#C[C@]1(O)CC[C@H]2[C@@H]3CCC4=CC(=O)CC[C@]4(C)[C@H]3CC[C@@]21C [Ethisterone],remaining activity at 3.75 µM,[1]; Well no.=2030,101%
same,remaining activity at 1.25 µM,[2]; Well no.=2030,101%
C/C1=C\CC(C)(C)/C=C/C(=O)/C(C)=C/CC1 [Zerumbone],remaining activity at 3.75 µM,[1]; Well no.=3549,98.6%
same,remaining activity at 1.25 µM,[2]; Well no.=3549,96.6%
O=C(c1ccc2c(c1)OCCO2)N1CCCCC1 [CX 546],remaining activity at 3.75 µM,[1]; Well no.=729,99.5%
same,remaining activity at 1.25 µM,[2]; Well no.=729,103%

# — article PMC8286840, “Identifying SARS-CoV-2 antiviral compounds by screening for small molecule inhibitors of Nsp3 papain-like protease” (Biochemical Journal, 2021)
